From patent EP2594270A2, “The use of sGC stimulators, sGC activators, alone and combinations with PDE5 inhibitors for the treatment of systemic sclerosis (SSc)” (BIP Patents, priority 2011, dated 2013)
Where two headings read alike, the source gives them in different places.

How the values were obtained:
[1] = system: Bleomycin-induced skin fibrosis; experiment: Bleomycin-induced skin fibrosis, preventive dose-regimen (Example A): dermal thickness, hydroxyproline assay, αSMA immunohistochemistry; format: in vivo, mice; settings: for Collagen content: hydroxyproline assay; for Myofibroblast count: αSMA positive cells
Protocol: Local skin fibrosis was induced in 6-week-old, pathogen-free, female DBA/2 mice (Charles River, Sulzfeld, Germany) by repeated (every other day) subcutaneous injections of bleomycin (0,5 mg/ml in saline) in a defined area of the upper back. Control mice were injected in the same manner with saline only and served as reference. For all groups the injection volume was 100 µl. Concomitant to bleomycin treatment, the mice were treated orally with test drug or vehicle. Mice were treated a) with vehicle b) with 1 mg/kg example 1A, and c) with 3 mg/kg example 1A, twice a day via gavage for 21 days. After this 3 weeks treatment period, the animals were sacrificed and skin samples were obtained for analysis.
(§1) The injected skin areas were fixed in 4% formalin and embedded in paraffin. Histological sections were stained with hematoxylin and eosin for the determination of dermal thickness. The dermal thickness was determined by measuring the largest distance between the epidermal-dermal junction and the dermal-subcutaneous fat junction. The measurements were performed by an examiner blinded to the treatment of the mice.
(§2) To analyze the collagen content in skin samples, hydroxyproline assay was performed. After digestion of punch biopsies (Ø 3mm) in 6M HCl for three hours at 120°C, chloramine T (0.06 M) was added and samples were mixed and incubated for 20 min at room temperature. 3.15 M perchloric acid and 20 % p-dimethylaminobenzaldehyde were added and samples were incubated for additional 20 min at 60 °C. The absorbance was determined at 557 nm.
(§3) The expression of α-smooth muscle actin (αSMA) was analyzed in paraffin embedded sections. After deparaffinization, samples were incubated with 3% bovine serum albumin followed by incubation with 3% H2O2. αSMA positive cells in mouse sections were detected by incubation with monoclonal anti-αSMA antibodies (clone 1A4, Sigma-Aldrich, Steinheim, Germany). Irrelevant isotype antibodies in the same concentration were used for control (Santa Cruz Biotechnology, Santa Cruz, CA, USA). Antibodies labeled with horseradish peroxidase (Dako, Hamburg, Germany) were used as secondary antibodies. The expression of the NICD and αSMA was visualized with DAB peroxidase substrate solution (Sigma-Aldrich). The number of myofibroblasts was counted from 4 different sections of lesional skin for each mouse by an examiner blinded to the treatment of the mice. Table 1: Effects of example 1A on development of Bleomycin-induced skin fibrosis.
Fibrosis parameters expressed as x-fold change with respect to vehicle-treated control

[2] = system: human dermal fibroblasts; experiment: TGFbeta-induced collagen gene expression and hydroxyproline deposition in human dermal fibroblasts in vitro (Example E); format: cell-based
Protocol: The effects of example 1A and vardenafil as standalone and in combination were analyzed in vitro in human dermal fibroblasts in vitro.

[3] = Haemodynamic effects in conscious mice with telemetric implants (Example D); format: in vivo; settings: dosages with antifibrotic properties
Protocol: The haemodynamic effects of i.e. example (1A) were analyzed in conscious mice. Telemetric implants (DSI®) were used. Signals were received with RMC1-DSI® receiver plates, compiled and analyzied with PONEMAH® physiology platform software.
The mice received either placebo (tylose), 0.3 mg/kg example 1A, 1mg/kg example 1A, 3mg/kg example 1A (Figure 1). The blood pressure and heart rate was monitored before and after application of placebo or the compounds.

[4] = system: established Bleomycin-induced skin fibrosis; experiment: Established bleomycin-induced skin fibrosis, therapeutic dose-regimen (Example B): dermal thickness, hydroxyproline assay, αSMA immunohistochemistry; format: in vivo, mice
Protocol: as §1, §2, §3
Local skin fibrosis was induced in 6-week-old, pathogen-free, female DBA/2 mice (Charles River, Sulzfeld, Germany) by repeated (every other day) subcutaneous injections of bleomycin (0,5 mg/ml in saline) in a defined area of the upper back. Control mice were injected in the same manner with saline only. For all groups the injection volume was 100 µl. The study comprises 4 arms with • a) mice receiving saline injection for 6 weeks (serving as reference) • b) mice receiving Bleomycin injection for 6 weeks • c) mice receiving Bleomycin injection for 6 weeks and additional treatment with example 1A (3 mg/kg) twice a day via gavage for the last 3 weeks • d) mice receiving the first 3 weeks bleomycin injections and the second 3 weeks saline injection.
After 6 weeks the animals were sacrificed and skin samples were obtained for analysis.
Histological analysis, hydroxyproline assay and immunhistochemistry for α-smooth muscel actin were performed as described in the Example 1A section. Table 3: Effects of example 1A (3mg/kg p.o.) on established Bleomycin-induced skin fibrosis Fibrosis parameters expressed as x-fold change with respect to vehicle-treated control (group a)

[5] = system: established skin fibrosis in Tsk-mice; experiment: Tight skin (Tsk-1) mouse model of systemic sclerosis (Example C): dermal thickness, hydroxyproline assay, αSMA immunohistochemistry; format: in vivo; settings: for hypodermal thickness / Collagen content / Myofibroblast count: oral gavage, x-fold change with respect to vehicle-treated wild type mice; for hypodermal thickness: five weeks of treatment; for Collagen content: hydroxyproline assay; for Collagen content / Myofibroblast count: five weeks; for Myofibroblast count: αSMA positive cells
Protocol: as §1, §2, §3
In addition to the mouse model of bleomycin-induced dermal fibrosis, the tight-skin (Tsk-1) mouse model of systemic sclerosis was used to evaluate the anti-fibrotic potential of test drugs. Due to a dominant mutation in fibrillin-1, the phenotype of Tsk-1 is characterized by an increased hypodermal thickness. Genotyping of Tsk-1 mice was performed by PCR with the following primers: mutated fibrillin-1/ Tsk-1 forward primer: 5' - […] - 3', reverse primer: 5' - […] - 3'. Tsk-1 mice were treated daily with test drug or vehicle, respectively, by oral gavage. In addition, a group of corresponding wild type(pa/pa) mice was treated with vehicle. The treatment was started at an age of five weeks. After five weeks of treatment, mice were sacrificed by cervical dislocation and skin samples were obtained for analysis.
Histological analysis, hydroxyproline assay and immunhistochemistry for α-smooth muscel actin were performed as described in the Example 1A section. Table 4: Effects of example 1A on established skin fibrosis in Tsk-mice
Fibrosis parameters expressed as x-fold change with respect to vehicle-treated wild type mice

[6] = bleomycin-induced SSc in mice, preventive dose-regimen
[7] = Bleomycin + 1 mg/kg example 1A, twice a day via gavage for 21 days, x-fold change with respect to vehicle-treated control
[8] = Bleomycin + 3mg/kg example 1A, twice a day via gavage for 21 days, x-fold change with respect to vehicle-treated control
[9] = Bleomycin 6 weeks + 3 weeks example 1A (3mg/kg p.o., twice a day, last 3 weeks), x-fold change with respect to vehicle-treated control (group a)
[10] = bleomycin-induced SSc in mice, therapeutic dose-regimen after established fibrosis
[11] = TSK mice, established fibrosis before start of treatment

With `Nc1nc(-c2nn(Cc3ccccc3F)c3ncccc23)ncc1C1CC1` [Example 1A, 3-(4-Amino-5-cyclopropylpyrimidin-2-yl)-1-(2-fluorobenzyl)-1H-pyrazolo[3,4-b]pyridine] the dermal thickness ([1]; Bleomycin + 1 mg/kg example 1A, twice a day via gavage for 21 days, DBA/2 mice, x-fold change with respect to vehicle-treated control) was 1.37 x-fold change, the dermal thickness ([1]; Bleomycin + 3mg/kg example 1A, twice a day via gavage for 21 days, DBA/2 mice, x-fold change with respect to vehicle-treated control) was 1.19 x-fold change and the dermal thickness [1, 6] was “significantly reduced”. For the same compound, the “hydroxyproline content of the skin” value [1, 6] was “significantly reduced”, the “number of dermal myofibroblasts” value [1, 6] was “significantly reduced” and the Collagen content [1, 7] was 1.19 x-fold change. For the same compound, the Collagen content [1, 8] was 1.11 x-fold change, the Myofibroblast count [1, 7] was 3.23 x-fold change and the Myofibroblast count [1, 8] was 1.90 x-fold change. The “TGF-induced collagen gene expression” value [2] was “significantly blocked”, the “TGFbeta-induced Hydroxyproline (HP) deposition” value [2] was “significantly blocked” and the “TGF-induced collagen gene expression” value ([2]; listed as example 1A) was “blocked”. The “heamodynamic profile (blood pressure and heart rate)” value [3] was “did not or only moderately, change”, the Myofibroblast count [4, 9] was 1.68 x-fold change and the dermal thickness [4, 9] was 1.26 x-fold change. For the same compound, the dermal thickness [4, 10] was “significantly reduced”, the “hydroxyproline content of the skin” value [4, 10] was “significantly reduced” and the “number of dermal myofibroblasts” value [4, 10] was “significantly reduced”. The dermal thickness [5, 11] was “significantly reduced”, the “hydroxyproline content of the skin” value [5, 11] was “significantly reduced” and the “number of dermal myofibroblasts” value [5, 11] was “significantly reduced”. It also gave a hypodermal thickness ([5]; Tsk-1 + 1 mg/kg example 1A) of 3.46 x-fold change, a hypodermal thickness ([5]; Tsk-1 + 3mg/kg example 1A) of 2.88 x-fold change and a Collagen content ([5]; Tsk-1 + 1 mg/kg example 1A) of 1.61 x-fold change. The Collagen content ([5]; Tsk-1 + 3mg/kg example 1A) was 1.67 x-fold change, the Myofibroblast count ([5]; Tsk-1 + 1 mg/kg example 1A) was 2.12 x-fold change and the Myofibroblast count ([5]; Tsk-1 + 3mg/kg example 1A) was 1.70 x-fold change.
